According to patent US8859584B2, “TRPV1 antagonists” (AbbVie Inc., priority 2011, dated 2014):

Experiments:
human TRPV1 [1] = target: T1, human TRPV1 (Homo sapiens, UniProt Q8NER1); assay: Acid Activation Assay (pH 5.0, FLIPR intracellular Ca2+, recombinant HEK293 cells); assay type: cell-based; conditions: percentage of maximal pH 5.0-induced response remaining; HEK293 hTRPV1; max concentration 37.5 μM
T1 construct: expressed in transfected cells
Method: (ii) Acid Activation Assay
Dulbecco's modified Eagle's medium (DMEM) with 4.5 mg/mL D-glucose, fetal bovine serum, L-glutamine, and 2-morpholinoethanesulfonic acid (MES) were purchased from Sigma-Aldrich Co. (St. Louis, Mo.). […] The FLIPR® Calcium 4 assay kit was purchased from Molecular Devices (Sunnyvale, Calif.).
(§1) Expression plasmids encoding the hTRPV1 cDNA were transfected into HEK293 cells using Lipofectamine®. Forty-eight hours after transfection, the neomycin-resistant cells were selected with growth medium containing 800 μg/mL Geneticin (Life Technologies, formerly Gibco BRL). Surviving individual colonies were isolated and screened for TRPV1 activity. Cells expressing recombinant TRPV1 were maintained at 37° C. in DMEM containing 4 mM L-glutamine, 300 μg/mL G418 (Calbiochem) and 10% fetal bovine serum under a humidified 5% CO2 atmosphere.
The functional activity of compounds at the TRPV1 receptor was determined by measurement of intracellular Ca^2+ levels ([Ca^2+]i) using the Fluorescence Imaging Plate Reader (FLIPR)TETRA®. […] Compound stocks, 10 mM, were prepared in DMSO, and diluted serially across a 384-well plate using a Bravo BenchCel workstation (Agilent Technologies, Santa Clara, Calif.). On the day prior to the experiment, the recombinant HEK293 cells expressing human TRPV1 (hTRPV1) were removed from tissue culture flasks and plated in growth medium into black-walled clear-bottom 384-well Biocoat™ poly-D-lysine assay plates (BD Biosciences, Bedford, Mass.) using a Multidrop® dispenser (ThermoScientific, Waltham, Mass.). […] The plated cells were incubated for 90-120 min in the dark at 25° C. The test compounds dissolved in DMSO were then added to the plates using an Agilent Bravo workstation (Agilent Technologies Inc., Santa Clara, Calif.). Three minutes later, a pH 5.0 solution was added to each well. Reagents were delivered at a rate of 40 μL/sec, and the final assay volume was 80 μL. Acidic pH solutions were prepared by titration of DPBS/MES with 1 N HCl. The intensity of the fluorescence was captured and digitally transferred to an interfaced PC. The maximum peak measured for the concentration range tested was used to calculate the corresponding peak increase in fluorescence over baseline (relative fluorescence units) which was expressed as the percentage (max % remain) of the maximal pH 5.0-induced response.

human TRPV1 [2] = target: T1, human TRPV1; assay: Capsaicin Activation Assay (FLIPR intracellular Ca2+, recombinant HEK293 cells); assay type: cell-based; conditions: recombinant HEK293 cells expressing hTRPV1; 50 nM capsaicin; read-out: human TRPV1 capsaicin IC50
Method: (i) Capsaicin Activation Assay
Dulbecco's modified Eagle medium (DMEM) (with 4.5 mg/mL glucose) and fetal bovine serum were obtained from Hyclone Laboratories, Inc. (Logan, Utah). Dulbecco's phosphate-buffered saline (DPBS) (with 1 mg/mL glucose and 3.6 mg/l Na pyruvate, without phenol red), L-glutamine, hygromycin B, and Lipofectamine® were obtained from Life Technologies (Grand Island, N.Y.). G418 sulfate was obtained from Calbiochem-Novabiochem Corp. (San Diego, Calif.). Capsaicin (8-methyl-N-vanillyl-6-nonenamide) was obtained from Sigma-Aldrich, Co. (St. Louis, Mo.). Fluo-4 AM (N-[4-[6-[(acetyloxy)-methoxy]-2,7-difluoro-3-oxo-3H-xanthen-9-yl]-2-[2-[2-[bis[2-[(acetyloxy)methoxy]-2-oxyethyl]amino]-5-methylphenoxy]ethoxy]phenyl]-N-[2-[(acetyloxy)methoxy]-2-oxyethyl]-glycine, (acetyloxy)methyl ester) was purchased from Molecular Probes (Eugene, Oreg.).
as §1
The functional activity of compounds at the TRPV1 receptor was determined by measurement of intracellular Ca^2+ levels ([Ca^2+]i) using the Fluorescence Imaging Plate Reader (FLIPR)TETRA®. All compounds were tested over a 12-point one-third-log concentration range. Compound stocks, 10 mM, were prepared in DMSO, and diluted serially across a 384-well plate using a Bravo BenchCel workstation (Agilent Technologies, Santa Clara, Calif.). A stock concentration of capsaicin (10 mM) was made in DMSO, and diluted in DPBS to a final concentration of 200 nM (4×). On the day prior to the experiment, the recombinant HEK293 cells expressing human TRPV1 (hTRPV1) were removed from tissue culture flasks and plated in growth medium into black-walled clear-bottom 384-well Biocoat™ poly-D-lysine assay plates (BD Biosciences, Bedford, Mass.) using a Multidrop® dispenser (ThermoScientific, Waltham, Mass.). […] The plated cells were incubated for 90-120 minutes in the dark at room temperature and then test compound was added to each well. Three minutes later, 200 nM capsaicin (4×) solution was added to each well in an amount sufficient to provide a final assay volume of 80 μL and capsaicin concentration of 50 nM. Fluorescence readings were made at 1 to 5 second intervals over the course of the experimental run. The peak increase in relative fluorescence units (minus baseline) was calculated, and expressed as a percentage of the 50 nM capsaicin (control) response.

T1 sequence (Q8NER1 whole entry): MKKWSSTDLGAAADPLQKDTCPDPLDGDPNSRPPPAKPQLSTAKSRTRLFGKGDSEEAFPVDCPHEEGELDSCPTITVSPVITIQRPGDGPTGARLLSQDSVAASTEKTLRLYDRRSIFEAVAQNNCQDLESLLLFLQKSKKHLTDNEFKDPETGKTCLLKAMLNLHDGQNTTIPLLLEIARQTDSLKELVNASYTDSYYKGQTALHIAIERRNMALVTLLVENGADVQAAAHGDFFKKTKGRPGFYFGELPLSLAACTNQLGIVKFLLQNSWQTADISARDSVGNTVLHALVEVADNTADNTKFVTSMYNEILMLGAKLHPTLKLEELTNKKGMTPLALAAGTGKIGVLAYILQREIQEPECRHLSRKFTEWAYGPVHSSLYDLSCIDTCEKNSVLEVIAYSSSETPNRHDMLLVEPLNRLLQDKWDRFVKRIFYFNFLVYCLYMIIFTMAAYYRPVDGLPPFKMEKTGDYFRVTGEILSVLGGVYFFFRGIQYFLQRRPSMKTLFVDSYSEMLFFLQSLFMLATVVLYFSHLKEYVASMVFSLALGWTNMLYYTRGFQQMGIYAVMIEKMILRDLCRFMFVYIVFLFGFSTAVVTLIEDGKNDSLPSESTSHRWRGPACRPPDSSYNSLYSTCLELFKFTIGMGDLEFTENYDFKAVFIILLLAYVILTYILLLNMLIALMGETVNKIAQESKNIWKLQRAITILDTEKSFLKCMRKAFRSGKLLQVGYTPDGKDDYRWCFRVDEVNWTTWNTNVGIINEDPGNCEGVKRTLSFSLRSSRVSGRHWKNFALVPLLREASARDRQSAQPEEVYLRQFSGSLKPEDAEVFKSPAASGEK

| Compound | human TRPV1 H+ (max % remain) (human TRPV1 [1]) [%] | IC50 (human TRPV1 [2]) [µM] |
| --- | --- | --- |
| C[C@@]1(CF)C[C@@H](NC(=O)Nc2cccc3c2C[C@H](O)C3)c2ccc(C(F)(F)F)cc2O1 [Example 44, 1-[(2S,4R)-2-(fluoromethyl)-2-methyl-7-(trifluoromethyl)-3,4-dihydro-2H-chromen-4-yl]-3-[(2R)-2-hydroxy-2,3-dihydro-1H-inden-4-yl]urea] | 52 | 0.042 |
| CC1(C)C[C@@H](NC(=O)Nc2cccc3c2C[C@H](O)C3)c2ccccc2O1 [Example 17, 1-[(4R)-2,2-dimethyl-3,4-dihydro-2H-chromen-4-yl]-3-[(2R)-2-hydroxy-2,3-dihydro-1H-inden-4-yl]urea] | 82 | 0.24 |
| CCC1(CC)C[C@@H](NC(=O)Nc2cccc3c2C[C@H](O)C3)c2ccc(F)cc2O1 [Example 52, 1-[(4R)-2,2-diethyl-7-fluoro-3,4-dihydro-2H-chromen-4-yl]-3-[(2R)-2-hydroxy-2,3-dihydro-1H-inden-4-yl]urea] | 73 | 0.013 |
| O=C(Nc1cccc2c1CC(O)C2)NC1CC(c2ccc(C(F)(F)F)cc2)Oc2ccccc21 (stereo not shown) [Example 121, 1-(2-hydroxy-2,3-dihydro-1H-inden-4-yl)-3-{2-[4-(trifluoromethyl)phenyl]-3,4-dihydro-2H-chromen-4-yl}urea] | 57 | 0.68 |
| 1-[(2R)-7-fluoro-2-hydroxy-2,3-dihydro-1H-inden-4-yl]-3-[(4R)-8-(trifluoromethyl)-3,4-dihydro-2H-chromen-4-yl]urea [Example 173] | 39 | 0.21 |
| CC1(C)C[C@@H](NC(=O)Nc2ccc(F)c3c2C[C@H](O)C3)c2ccccc2O1 [Example 145, 1-[(4R)-2,2-dimethyl-3,4-dihydro-2H-chromen-4-yl]-3-[(2S)-7-fluoro-2-hydroxy-2,3-dihydro-1H-inden-4-yl]urea] | 7 | 3.2 |
| O=C(Nc1cccc2c1C[C@H](O)C2)N[C@@H]1CCOc2ccccc21 [Example 47, 1-[(4R)-3,4-dihydro-2H-chromen-4-yl]-3-[(2R)-2-hydroxy-2,3-dihydro-1H-inden-4-yl]urea] | 81 | 4.1 |
| C[C@]1(CF)C[C@@H](NC(=O)Nc2cccc3c2C[C@H](O)C3)c2ccc(Cl)cc2O1 [Example 15, 1-[(2R,4R)-7-chloro-2-(fluoromethyl)-2-methyl-3,4-dihydro-2H-chromen-4-yl]-3-[(2R)-2-hydroxy-2,3-dihydro-1H-inden-4-yl]urea] | 63 | 0.06 |
| CC1(C)C[C@@H](NC(=O)Nc2ccc(F)c3c2C[C@@H](O)C3)c2ccccc2O1 [Example 164, 1-[(4R)-2,2-dimethyl-3,4-dihydro-2H-chromen-4-yl]-3-[(2R)-7-fluoro-2-hydroxy-2,3-dihydro-1H-inden-4-yl]urea] | 61 | 1.5 |
| CC1(C)C[C@@H](NC(=O)Nc2cccc3c2C[C@@H](O)C3)c2cc(F)ccc2O1 [Example 83, 1-[(4R)-6-fluoro-2,2-dimethyl-3,4-dihydro-2H-chromen-4-yl]-3-[(2S)-2-hydroxy-2,3-dihydro-1H-inden-4-yl]urea] | 27 | 0.79 |
| CC1(C)C[C@@H](NC(=O)Nc2ccc(F)c3c2C[C@H](O)C3)c2cccc(C(F)(F)F)c2O1 [Example 135, 1-[(4R)-2,2-dimethyl-8-(trifluoromethyl)-3,4-dihydro-2H-chromen-4-yl]-3-[(2S)-7-fluoro-2-hydroxy-2,3-dihydro-1H-inden-4-yl]urea] | 3 | 0.042 |
| C[C@@]1(CF)C[C@@H](NC(=O)Nc2cccc3c2C[C@H](O)C3)c2ccc(Cl)cc2O1 [Example 16, 1-[(2S,4R)-7-chloro-2-(fluoromethyl)-2-methyl-3,4-dihydro-2H-chromen-4-yl]-3-[(2R)-2-hydroxy-2,3-dihydro-1H-inden-4-yl]urea] | 57 | 0.037 |
| O=C(Nc1cccc2c1CC(O)C2)NC1CC(c2ccccc2Cl)Oc2ccccc21 (stereo not shown) [Example 120, 1-[2-(2-chlorophenyl)-3,4-dihydro-2H-chromen-4-yl]-3-(2-hydroxy-2,3-dihydro-1H-inden-4-yl)urea] | 51 | 1.6 |
| O=C(Nc1cccc2c1C[C@H](O)C2)N[C@@H]1CCOc2cc(F)ccc21 [Example 65, 1-[(4R)-7-fluoro-3,4-dihydro-2H-chromen-4-yl]-3-[(2R)-2-hydroxy-2,3-dihydro-1H-inden-4-yl]urea] | 73 | 0.27 |
| O=C(Nc1cccc2c1C[C@H](O)C2)N[C@@H]1CC(CF)(CF)Oc2cc(Br)ccc21 [Example 45, 1-[(4R)-7-bromo-2,2-bis(fluoromethyl)-3,4-dihydro-2H-chromen-4-yl]-3-[(2R)-2-hydroxy-2,3-dihydro-1H-inden-4-yl]urea] | 58 | 0.043 |
| O=C(Nc1ccc(F)c2c1C[C@@H](O)C2)N[C@@H]1CC(CF)(CF)Oc2c(F)cc(F)cc21 [Example 162, 1-[(4R)-6,8-difluoro-2,2-bis(fluoromethyl)-3,4-dihydro-2H-chromen-4-yl]-3-[(2R)-7-fluoro-2-hydroxy-2,3-dihydro-1H-inden-4-yl]urea] | 50 | 3.4 |
| O=C(Nc1ccc(F)c2c1C[C@H](O)C2)N[C@@H]1CC(CF)(CF)Oc2cc(OC(F)(F)F)ccc21 [Example 139, 1-[(4R)-2,2-bis(fluoromethyl)-7-(trifluoromethoxy)-3,4-dihydro-2H-chromen-4-yl]-3-[(2S)-7-fluoro-2-hydroxy-2,3-dihydro-1H-inden-4-yl]urea] | 2 | 0.37 |
| CC1(C)C[C@@H](NC(=O)Nc2ccc(F)c3c2C[C@H](O)C3)c2ccc(Cl)cc2O1 [Example 149, 1-[(4R)-7-chloro-2,2-dimethyl-3,4-dihydro-2H-chromen-4-yl]-3-[(2S)-7-fluoro-2-hydroxy-2,3-dihydro-1H-inden-4-yl]urea] | 2 | 0.54 |
| O=C(Nc1ccc(F)c2c1C[C@H](O)C2)N[C@@H]1CCOc2cc(OC(F)(F)F)ccc21 [Example 150, 1-[(2S)-7-fluoro-2-hydroxy-2,3-dihydro-1H-inden-4-yl]-3-[(4R)-7-(trifluoromethoxy)-3,4-dihydro-2H-chromen-4-yl]urea] | 3 | 1.6 |
| Cc1nc(Nc2cccc3c2C[C@H](O)CC3)oc1-c1ccc(C(F)(F)F)cc1 [Example D, reference compound] | 3 | – |
| CC(C)(C)c1ccc2c(c1)CC[C@H]2NC(=O)Nc1cccc2[nH]ncc12 [C, reference compound] | 1 | – |
